In ChEMBL document CHEMBL4270577, “Synthesis, anticancer activity and molecular modeling studies of 1,2,4-triazole derivatives as EGFR inhibitors” (Eur J Med Chem, 2018):

Columns and labels:
[1] = test system: M14; test: Growth inhibition of human M14 cells at 10 uM incubated for 48 hrs by sulforhodamine B assay relative to control; format: functional; conditions: M14, 48 h, read-out: GI
[2] = test system: MIA PaCa-2; test: Antiproliferative activity against human MIAPaCa2 cells after 48 hrs by propidium iodide staining-based fluorometric analysis; format: functional, cell-based; conditions: MIA PaCa-2, 48 h
[3] = test system: 786-0; test: Growth inhibition of human 786-0 cells at 10 uM incubated for 48 hrs by sulforhodamine B assay relative to control; format: functional; conditions: 786-0, 48 h, read-out: GI
[4] = test system: SK-OV-3; test: Growth inhibition of human SKOV3 cells at 10 uM incubated for 48 hrs by sulforhodamine B assay relative to control; format: functional; conditions: SK-OV-3, 48 h, read-out: GI
[5] = test system: MDA-MB-435; test: Growth inhibition of human MDA-MB-435 cells at 10 uM incubated for 48 hrs by sulforhodamine B assay relative to control; format: functional; conditions: MDA-MB-435, 48 h, read-out: GI
[6] = test system: MCF7; test: Growth inhibition of human MCF7 cells at 10 uM incubated for 48 hrs by sulforhodamine B assay relative to control; format: functional; conditions: MCF7, 48 h, read-out: GI
[7] = test system: HT-29; test: Growth inhibition of human HT-29 cells at 10 uM incubated for 48 hrs by sulforhodamine B assay relative to control; format: functional; conditions: HT-29, 48 h, read-out: GI
[8] = test system: UACC-62; test: Growth inhibition of human UACC62 cells at 10 uM incubated for 48 hrs by sulforhodamine B assay relative to control; format: functional; conditions: UACC-62, 48 h, read-out: GI
[9] = test system: NCI-H226; test: Growth inhibition of human NCI-H226 cells at 10 uM incubated for 48 hrs by sulforhodamine B assay relative to control; format: functional; conditions: NCI-H226, 48 h, read-out: GI
[10] = test system: HCC 2998; test: Growth inhibition of human HCC2998 cells at 10 uM incubated for 48 hrs by sulforhodamine B assay relative to control; format: functional; conditions: HCC 2998, 48 h, read-out: GI
[11] = test system: OVCAR-3; test: Growth inhibition of human OVCAR3 cells at 10 uM incubated for 48 hrs by sulforhodamine B assay relative to control; format: functional; conditions: OVCAR-3, 48 h, read-out: GI
[12] = test system: Hs-578T; test: Growth inhibition of human Hs 578T cells at 10 uM incubated for 48 hrs by sulforhodamine B assay relative to control; format: functional; conditions: read-out: GI
[13] = test system: HOP-92; test: Growth inhibition of human HOP92 cells at 10 uM incubated for 48 hrs by sulforhodamine B assay relative to control; format: functional; conditions: HOP-92, 48 h, read-out: GI
[14] = test system: SW-620; test: Growth inhibition of human SW620 cells at 10 uM incubated for 48 hrs by sulforhodamine B assay relative to control; format: functional; conditions: SW-620, 48 h, read-out: GI
[15] = test system: COLO 205; test: Growth inhibition of human COLO205 cells at 10 uM incubated for 48 hrs by sulforhodamine B assay relative to control; format: functional; conditions: COLO 205, 48 h, read-out: GI
[16] = test system: HL-60(TB); test: Growth inhibition of human HL-60(TB) cells at 10 uM incubated for 48 hrs by sulforhodamine B assay relative to control; format: functional; conditions: HL-60, 48 h, read-out: GI
[17] = test system: SK-MEL-5; test: Growth inhibition of human SK-MEL-5 cells at 10 uM incubated for 48 hrs by sulforhodamine B assay relative to control; format: functional; conditions: SK-MEL-5, 48 h, read-out: GI
[18] = test system: MDA-MB-468; test: Growth inhibition of human MDA-MB-468 cells at 10 uM incubated for 48 hrs by sulforhodamine B assay relative to control; format: functional; conditions: MDA-MB-468, 48 h, read-out: GI
[19] = test system: SF-268; test: Growth inhibition of human SF268 cells at 10 uM incubated for 48 hrs by sulforhodamine B assay relative to control; format: functional; conditions: SF-268, 48 h, read-out: GI
[20] = test system: UO-31; test: Growth inhibition of human UO31 cells at 10 uM incubated for 48 hrs by sulforhodamine B assay relative to control; format: functional; conditions: UO-31, 48 h, read-out: GI
[21] = test system: U-251; test: Growth inhibition of human U251 cells at 10 uM incubated for 48 hrs by sulforhodamine B assay relative to control; format: functional; conditions: U-251, 48 h, read-out: GI
[22] = test system: IGROV-1; test: Growth inhibition of human IGROV1 cells at 10 uM incubated for 48 hrs by sulforhodamine B assay relative to control; format: functional; conditions: IGROV-1, 48 h, read-out: GI
[23] = test system: NCI-H460; test: Antiproliferative activity against human H460 cells after 48 hrs by propidium iodide staining-based fluorometric analysis; format: functional, cell-based; conditions: NCI-H460, 48 h
[24] = test system: NCI-H460; test: Growth inhibition of human NCI-H460 cells at 10 uM incubated for 48 hrs by sulforhodamine B assay relative to control; format: functional; conditions: NCI-H460, 48 h, read-out: GI
[25] = test system: PANC-1; test: Antiproliferative activity against human PANC1 cells after 48 hrs by propidium iodide staining-based fluorometric analysis; format: functional, cell-based; conditions: PANC-1, 48 h
[26] = test system: OVCAR-4; test: Growth inhibition of human OVCAR4 cells at 10 uM incubated for 48 hrs by sulforhodamine B assay relative to control; format: functional; conditions: OVCAR-4, 48 h, read-out: GI
[27] = test system: SNB-19; test: Growth inhibition of human SNB19 cells at 10 uM incubated for 48 hrs by sulforhodamine B assay relative to control; format: functional; conditions: SNB-19, 48 h, read-out: GI
[28] = test system: UACC-257; test: Growth inhibition of human UACC257 cells at 10 uM incubated for 48 hrs by sulforhodamine B assay relative to control; format: functional; conditions: UACC-257, 48 h, read-out: GI
[29] = test system: SN12C; test: Growth inhibition of human SN12C cells at 10 uM incubated for 48 hrs by sulforhodamine B assay relative to control; format: functional; conditions: read-out: GI
[30] = test system: NCI-H322M; test: Growth inhibition of human NCI-H322M cells at 10 uM incubated for 48 hrs by sulforhodamine B assay relative to control; format: functional; conditions: read-out: GI
[31] = test system: A549; test: Growth inhibition of human A549/ATCC cells at 10 uM incubated for 48 hrs by sulforhodamine B assay relative to control; format: functional; conditions: A549, 48 h, read-out: GI
[32] = test system: HOP-62; test: Growth inhibition of human HOP62 cells at 10 uM incubated for 48 hrs by sulforhodamine B assay relative to control; format: functional; conditions: HOP-62, 48 h, read-out: GI
[33] = test system: EKVX; test: Growth inhibition of human EKVX cells at 10 uM incubated for 48 hrs by sulforhodamine B assay relative to control; format: functional; conditions: read-out: GI
[34] = test system: Malme-3M; test: Growth inhibition of human MALME-3M cells at 10 uM incubated for 48 hrs by sulforhodamine B assay relative to control; format: functional; conditions: read-out: GI
[35] = test system: DU-145; test: Growth inhibition of human DU145 cells at 10 uM incubated for 48 hrs by sulforhodamine B assay relative to control; format: functional; conditions: DU-145, 48 h, read-out: GI
[36] = test system: TK-10; test: Growth inhibition of human TK10 cells at 10 uM incubated for 48 hrs by sulforhodamine B assay relative to control; format: functional; conditions: TK-10, 48 h, read-out: GI

Row | SMILES | inhibition of growth at 10 µM [1] [%] | IC50 [2] [µM] | inhibition of growth at 10 µM [6] [%] | inhibition of growth at 10 µM [7] [%] | inhibition of growth at 10 µM [8] [%] | inhibition of growth at 10 µM [9] [%] | inhibition of growth at 10 µM [12] [%] | inhibition of growth at 10 µM [13] [%] | inhibition of growth at 10 µM [14] [%] | inhibition of growth at 10 µM [15] [%] | inhibition of growth at 10 µM [17] [%] | inhibition of growth at 10 µM [18] [%] | inhibition of growth at 10 µM [19] [%] | inhibition of growth at 10 µM [20] [%] | inhibition of growth at 10 µM [21] [%] | IC50 [23] [µM] | inhibition of growth at 10 µM [24] [%] | IC50 [25] [µM] | inhibition of growth at 10 µM [26] [%] | inhibition of growth at 10 µM [27] [%] | further results
1 | COc1ccc(-c2nc3sc(-c4ccccc4)cn3n2)cc1 | 71 | 4.9 | 74 | 70 | 42 | 23 | 40 | 32 | 64 | 63 | 65 | 81 | 28 | 38 | 21 | 6.9 | 65 | 4.5 | 37 | 34 | inhibition of growth at 10 µM [3]: 11%; inhibition of growth at 10 µM [4]: 32%; inhibition of growth at 10 µM [5]: -8.6%; inhibition of growth at 10 µM [10]: 22%; inhibition of growth at 10 µM [11]: 41%; inhibition of growth at 10 µM [16]: 32%; inhibition of growth at 10 µM [22]: 52%; inhibition of growth at 10 µM [28]: 28%; inhibition of growth at 10 µM [29]: 37%; inhibition of growth at 10 µM [30]: 14%; inhibition of growth at 10 µM [31]: 49%; inhibition of growth at 10 µM [32]: 49%; inhibition of growth at 10 µM [33]: 37%; inhibition of growth at 10 µM [34]: 32%; inhibition of growth at 10 µM [35]: 16%
2 | c1ccc(-c2nc3sc(-c4ccccc4)cn3n2)cc1 | 13 | 9.2 | 61 | 9 | 33 | 27 | 9 | 25 | 5 | 5 | 20 | 14 | 7 | 53 | 6 | 8.3 | 6 | 7.2 | 23 | 11 | inhibition of growth at 10 µM [4]: 5%; inhibition of growth at 10 µM [11]: 16%; inhibition of growth at 10 µM [16]: 21%; inhibition of growth at 10 µM [22]: 43%; inhibition of growth at 10 µM [28]: 13%; inhibition of growth at 10 µM [29]: 20%; inhibition of growth at 10 µM [30]: 11%; inhibition of growth at 10 µM [31]: 10%; inhibition of growth at 10 µM [32]: 33%; inhibition of growth at 10 µM [33]: 21%; inhibition of growth at 10 µM [35]: 15%
3 | COc1cc(-c2nc3sc(-c4ccccc4)cn3n2)cc(OC)c1OC | 25 | 4.7 | 23 | 18 | 31 | 23 | 26 | 50 | 6 | 15 | 41 | 35 | 9 | 43 | 32 | 4.8 | 18 | 4.9 | 17 | 10 | inhibition of growth at 10 µM [3]: 14%; inhibition of growth at 10 µM [5]: 16%; inhibition of growth at 10 µM [36]: 6%; inhibition of growth at 10 µM [16]: 37%; inhibition of growth at 10 µM [28]: 10%; inhibition of growth at 10 µM [29]: 19%; inhibition of growth at 10 µM [30]: 7%; inhibition of growth at 10 µM [31]: 23%; inhibition of growth at 10 µM [32]: 15%; inhibition of growth at 10 µM [33]: 63%; inhibition of growth at 10 µM [35]: 9%
4 | COc1ccc(-c2nc3sc(-c4ccc(Cl)cc4)cn3n2)cc1 | 9 | 2.6 | 51.1 | 82.7 | 31.4 | 49.9 | 73 | 79.5 | 40.4 | 47.5 | 27.4 | 66.6 | 34.9 | -7.46 | -67.9 | 1.6 | -39 | 2.8 | -63.3 | -1.95 | inhibition of growth at 10 µM [3]: -75.8%; inhibition of growth at 10 µM [4]: 50.5%; inhibition of growth at 10 µM [5]: 25%; inhibition of growth at 10 µM [10]: 21.4%; inhibition of growth at 10 µM [36]: -30.8%; inhibition of growth at 10 µM [11]: 75.3%; inhibition of growth at 10 µM [22]: 92.9%; inhibition of growth at 10 µM [28]: 15.4%; inhibition of growth at 10 µM [29]: 94.7%; inhibition of growth at 10 µM [30]: 82.2%; inhibition of growth at 10 µM [31]: -30%; inhibition of growth at 10 µM [32]: 60.4%; inhibition of growth at 10 µM [33]: 52.5%; inhibition of growth at 10 µM [34]: 49.2%; inhibition of growth at 10 µM [35]: 19.3%
5 | Clc1ccc(-c2cn3nc(-c4ccccc4)nc3s2)cc1 | 15 | 6.5 | 35 | 26 | 18 | 32 | 40 | 53 | 13 | 18 | 21 | 57 | 20 | 40 | 25 | 5.1 | 37 | 5.2 | 60 | 57 | inhibition of growth at 10 µM [3]: 53%; inhibition of growth at 10 µM [4]: 64%; inhibition of growth at 10 µM [5]: 11%; inhibition of growth at 10 µM [10]: 10%; inhibition of growth at 10 µM [36]: 18%; inhibition of growth at 10 µM [11]: 24%; inhibition of growth at 10 µM [16]: 15%; inhibition of growth at 10 µM [22]: 55%; inhibition of growth at 10 µM [28]: 15%; inhibition of growth at 10 µM [29]: 22%; inhibition of growth at 10 µM [30]: 20%; inhibition of growth at 10 µM [31]: 36%; inhibition of growth at 10 µM [32]: 40%; inhibition of growth at 10 µM [33]: 28%; inhibition of growth at 10 µM [34]: 10%; inhibition of growth at 10 µM [35]: 14%
